From patent publication EP0603240B1, “SAFENING HERBICIDAL PYRAZOLYLSULFONYLUREAS” (priority 1991, dated 1993)
Structures can show the parent of a compound that is named as a salt. Where two headings read alike, the source gives them in different places.

Tests used:
corn [1] = test: Example 24, Procedure II: Herbicide No. 1 + co-herbicides Nos. 4, 6, 7, 12 with Antidote Nos. 15 and 17-21; format: in vivo; conditions: antidote 2.24 kg/ha; highest test rate (0.56 kg/ha) of Herbicide No. 1 + co-herbicide
Protocol: (§1) Containers were filled and compacted with a fumigated silt loam top soil to a depth of about 1.3 cm from the top of the container. A first container was designated as an untreated control, a second container was designated as a herbicide control, and a third container was designated as a herbicide + antidote test container. Each of the containers was seeded with a crop species. A measured amount of herbicide dispersed or dissolved in acetone was applied to a measured quantity of soil. To this same quantity of soil treated with herbicide, there was added a measured amount of antidote dispersed or dissolved in acetone. The quantity of soil treated with the herbicide and antidote was thoroughly mixed to incorporate the herbicide and antidote in the soil uniformly. The seed bed in the third container of soil was covered with the soil treated with the herbicide and antidote and the container was leveled. For each test series, the seed beds of the first and second containers were likewise covered by soil layers. the cover layer of the first container was not treated with herbicide or antidote.
(§2) The containers were then placed on a bench in a greenhouse and sub-irrigated as required for the duration of the test. […] Plant response is measured in terms of percent injury. Antidote efficacy is indicated as the difference in plant injury by the herbicide(s) without the antidote and with the antidote.
(§3) This procedure is the same as Procedure I, but modified in the manner that after incorporation of the chemicals (herbicide and antidote) the containers with the covered seedbed were treated with an initial overhead irrigation equivalent to 0.6 cm rainfall, then subsequently sub-irrigated as required on greenhouse benches.
In other greenhouse tests, using Procedure II described above, the safening efficacy of Antidote Nos. 15 and 17-21 was evaluated against Herbicide No. 1 in corn in the presence of Giant foxtail (Setaria fabergi) and Velvetleaf (Abutilon theophrasti) as representative annual monocotyledonous and dicotyledonous weeds, respectively.
Test results are shown in Tables 23A and 23B wherein the indicated plant inhibition represents the average of duplicate replications, with observations being made thirteen (13) days after application of the chemicals. Giant foxtail and Velvetleaf are represented by the symbols "GFT" and "VL", respectively. The data in Table 23A show the test results using the antidotes at 2.24 kg/ha, whereas in Table 23B, the antidotal rate was reduced to 0.56 kg/ha.
The tests described in Example 23 were duplicated, but in this example a variety of co-herbicides were included to ascertain the efficacy of the antidotes against combinations of Herbicide No. 1 and Herbicides Nos. 4, 6, 7 and 12 as co-herbicides. Test results are shown in Table 24, wherein the antidote application rate was 2.24 kg/ha.

corn [2] = test: Example 12, Procedure II: Herbicide No. 1 + acetochlor (No. 6) with thirteen antidotes; format: in vivo
Protocol: as §1, §2, §3
This example was designed to investigate the efficacy of thirteen different antidotes from different classes of chemistry as safeners against compositions of Herbicide No. 1 and acetochlor (Herbicide No. 6) as co-herbicide. Acetochlor is the active ingredient in the commercial herbicides GUARDIAN® and WENNER®.
The test procedure used in this example was Procedure II described above.

corn [3] = test: Example 3, Procedure I: antidotes against Herbicide No. 1; format: in vivo
Protocol: as §1, §2
(§4) This example details the results of tests with Antidote Nos. 12, 15 and 16 to safen Herbicide No. 1 over application rates ranging from 4.48 kg/ha down to 0.56 kg/ha, in corn in the presence of barnyardgrass. Procedure I described above was used in these tests.

[4] = tested on: barnyardgrass (Echinochloa crusgalli); test: as above; format: in vivo
Protocol: as §1, §2
(§5) In the series of greenhouse tests described below, for routine screening purposes the herbicide/antidote compositions were tested in crop/weed combinations involving corn as the crop and either or both of the weeds barnyardgrass (Echinochloa crusgalli), a monocotyledonous weed, and velvetleaf (Abutilon theophrasti), a dicotyledonous weed. In the tables below, these weeds are indicated by the symbols "BYG" and "VL", respectively.
as §4

corn [5] = test: Example 20, Procedure II: Herbicide No. 1 + EPTC or ERADICANE EXTRA with Antidote Nos. 5 and 15; format: in vivo
Protocol: as §1, §2, §3
(§6) This example describes experiments designed to test two generally efficacious antidotal compounds, i.e., Antidote Nos. 5 and 15, against the herbicidal action of the sulfonylurea compound, Herbicide No. 1, and the commercial herbicides EPTC (Herbicide No. 4) and ERADICANE® EXTRA (EPTC + R-29148, Antidote No. 5). Procedure II above was used in conducting these experiments. Formulations of EPTC and ERADICANE EXTRA were applied onto soil cover layers (to be applied over seed beds), followed by sequential pipetting of Herbicide No. 1 and Antidote No. 15. The soil was mixed to homogeneity and spread over the seed beds followed by 0.6 cm of overhead irrigation.

[6] = tested on: velvetleaf (Abutilon theophrasti); test: as above; format: in vivo
Protocol: as §1, §2, §3, §5, §6

corn [7] = test: Example 8, Procedure II: Herbicide No. 1 + butachlor (No. 9) with antidotes; format: in vivo; conditions: Herbicide No.9 2.24 kg/ha alone
Protocol: as §1, §2, §3
(§7) In this test, the efficacy of the same five antidotes used in Examples 6 and 7 was investigated in compositions comprising Herbicide No. 1 and as a co-herbicide, butachlor (Herbicide No. 9), active ingredient in MACHETE® herbicide, a leading commercial rice herbicide. The test procedure used in this example was the same as that in Examples 6 and 7.

[8] = tested on: barnyardgrass (Echinochloa crusgalli); test: as above; format: in vivo; conditions: Herbicide No.9 2.24 kg/ha alone
Protocol: as §1, §2, §3, §5, §7

[9] = tested on: velvetleaf (Abutilon theophrasti); test: as above; format: in vivo; conditions: Herbicide No.9 2.24 kg/ha alone
Protocol: as §1, §2, §3, §5, §7

[10] = tested on: barnyardgrass (Echinochloa crusgalli); test: Example 6, Procedure II: Herbicide No. 1 + alachlor (No. 7) with antidotes; format: in vivo; conditions: Herbicide No.7 4.48 kg/ha alone
Protocol: as §1, §2, §3, §5
(§8) This example was designed to investigate the antidotal efficacy of a plurality of antidotal compounds against a composition comprising Herbicide No. 1 in combination with Herbicide No. 7 (alachlor). The antidotal compounds used herein were Nos. 1, 2, 7, 13 and 15.
(§9) In this example, Procedure II described above was followed. The data from the tests in this example is shown in Table 6 and represents averages of duplicate replications.

[11] = tested on: velvetleaf (Abutilon theophrasti); test: as above; format: in vivo; conditions: Herbicide No.7 4.48 kg/ha alone
Protocol: as §1, §2, §3, §5, §8, §9

corn [12] = test: as above; format: in vivo; conditions: Herbicide No.7 4.48 kg/ha alone
Protocol: as §1, §2, §3, §8, §9

corn [13] = test: Example 25, greenhouse preemergence test: Antidote Nos. 1 and 2 against Herbicide Nos. 1-3; format: in vivo, Corn (Pioneer 3424 variety); conditions: no antidote
Protocol: The chemicals were tested in both preemergence and post-emergence modes of application. The herbicides were prepared and applied as wettable powders; dichlormid was applied as an emulsifiable concentrate, while the naphthalic anhydride was applied as a coating on the corn seed prior to planting.
Test data from the preemergence tests are shown in Table 25A and from the post-emergence tests in Table 25B. In the tables, the concentration of chemicals is shown in terms of active ingredient in grams per hectare (G/ha); concentrations of the naphthalic anhydride were not measured per se, but were present as in conventional, normally-coated applications. Corn injury is shown in terms of percent inhibition of growth.

[14] = tested on: barnyardgrass (Echinochloa crusgalli); test: Example 7, Procedure II: Herbicide No. 1 + metolachlor (No. 12) with antidotes; format: in vivo; conditions: Herbicide No.12 3.36 kg/ha alone
Protocol: as §1, §2, §3, §5, §9
(§10) The tests in this example followed the same procedure and antidotes used in Example 6. However, Herbicide No. 12 (metolachlor) was used as the co-herbicide with Herbicide No. 1.

[15] = tested on: velvetleaf (Abutilon theophrasti); test: as above; format: in vivo; conditions: Herbicide No.12 3.36 kg/ha alone
Protocol: as §1, §2, §3, §5, §9, §10

corn [16] = test: as above; format: in vivo; conditions: Herbicide No.12 3.36 kg/ha alone
Protocol: as §1, §2, §3, §9, §10

[17] = Herb. No. 1 0.56 kg/ha + antidote 0.56 kg/ha
[18] = Herb. No. 1 0.56 kg/ha + antidote 2.24 kg/ha
[19] = Herb. No. 1 0.56 kg/ha + antidote 8.96 kg/ha
[20] = Herb. No. 1 1.12 kg/ha + antidote 0.56 kg/ha
[21] = Herb. No. 1 1.12 kg/ha + antidote 2.24 kg/ha
[22] = Herb. No. 1 1.12 kg/ha + antidote 8.96 kg/ha
[23] = Herb. No. 1 2.24 kg/ha + antidote 0.56 kg/ha
[24] = Herb. No. 1 2.24 kg/ha + antidote 2.24 kg/ha
[25] = Herb. No. 1 2.24 kg/ha + antidote 8.96 kg/ha
[26] = Herb. No. 1 4.48 kg/ha + antidote 0.56 kg/ha
[27] = Herb. No. 1 4.48 kg/ha + antidote 2.24 kg/ha
[28] = Herb. No. 1 4.48 kg/ha + antidote 8.96 kg/ha
[29] = antidote 8.96 kg/ha alone, no herbicide
[30] = Herbicide No. 4 2.24 kg/ha alone
[31] = Herbicide No. 4 4.48 kg/ha alone
[32] = Herbicide No. 4 6.72 kg/ha alone

COC(=O)COC(c1ccccc1)c1ccccc1 [Antidote No. 20, Acetic acid, (diphenylmethoxy)-, methyl ester]
safening of corn, assessment in words (corn [1]): failed to safen

CCOCN(C(=O)CCl)c1c(C)cccc1CC [Herbicide No. 6, 2-Chloro-N-(ethoxymethyl)-6'-ethyl-o-acetoluidide, reference compound]
injury to corn (corn [2]; Herbicide No. 6 2.24 kg/ha, without an antidote): 25%

CC1(C)OC(c2cccs2)CN1C(=O)C(Cl)Cl (stereo not drawn) [compound 11]
% Injury Corn (corn [3]; [17]): 15%
% Injury Corn (corn [3]; [18]): 0%
% Injury Corn (corn [3]; [19]): 0%
% Injury Corn (corn [3]; [20]): 5%
% Injury Corn (corn [3]; [21]): 0%
% Injury Corn (corn [3]; [22]): 0%
% Injury Corn (corn [3]; [23]): 30%
% Injury Corn (corn [3]; [24]): 0%
% Injury Corn (corn [3]; [25]): 0%
% Injury Corn (corn [3]; [26]): 50%
% Injury Corn (corn [3]; [27]): 30%
% Injury Corn (corn [3]; [28]): 5%
% Injury Corn (corn [3]; [29]): 15%
% Injury BYG [4, 17]: 70%
% Injury BYG [4, 18]: 20%
% Injury BYG [4, 19]: 0%
% Injury BYG [4, 20]: 80%
% Injury BYG [4, 21]: 15%
% Injury BYG [4, 22]: 0%
% Injury BYG [4, 23]: 75%
% Injury BYG [4, 24]: 30%
% Injury BYG [4, 25]: 0%
% Injury BYG [4, 26]: 80%
% Injury BYG [4, 27]: 80%
% Injury BYG [4, 28]: 50%
% Injury BYG [4, 29]: 0%

CCCN(CCC)C(=O)SCC [No. 4]
% Injury Corn (corn [5]; [30]): 0%
% Injury Corn (corn [5]; [31]): 0%
% Injury Corn (corn [5]; [32]): 10%
% Injury VL [6, 30]: 0%
% Injury VL [6, 31]: 0%
% Injury VL [6, 32]: 18%

N#CC(=NOCC1OCCO1)c1ccccc1 [Antidote No. 6, Benzeneacetonitrile, α-{[(1,3-dioxolan-2-yl)methoxy]imino}-]
safening of corn, assessment in words (corn [2]; Herbicide No. 1:Herbicide 6:Antidote 0.14:2.24:2.24 kg/ha): performed at commercial levels
safening of corn, assessment in words (corn [2]; Herbicide No. 1:Herbicide 6:Antidote 0.14:2.24:8.96 kg/ha): performed at commercial levels

CCCCOCN(C(=O)CCl)c1c(CC)cccc1CC [Herbicide No. 9, 2-Chloro-2',6'-diethyl-N-(butoxymethyl)acetanilide, reference compound]
% Injury Corn (corn [7]): 5%
% Injury BYG [8]: 99%
% Injury VL [9]: 25%

CCc1cccc(CC)c1N(COC)C(=O)CCl [Herbicide No. 7, 2-Chloro-2',6'-diethyl-N-(methoxymethyl)acetanilide, reference compound]
% Injury BYG [10]: 100%
% Injury VL [11]: 25%
% Injury Corn (corn [12]): 10%

O=C(O)COC(c1ccccc1)c1ccccc1 [Antidote No. 18, Acetic acid, (diphenylmethoxy)- sodium salt, hemihydrate]
safening of corn, assessment in words (corn [1]): failed to safen

N-[(4,6-dimethoxypyridin-2-yl)aminocarbonyl]-3-chloro-4-ethoxycarbonyl-1-methylpyrazole-5-sulfonamide [Herbicide No. 2]
% Inhibition Corn (corn [13]; Preemergence, herbicide alone 0.25 G/ha): 21.7%
% Inhibition Corn (corn [13]; Preemergence, herbicide alone 0.74 G/ha): 36.4%
% Inhibition Corn (corn [13]; Preemergence, herbicide alone 2.5 G/ha): 42.7%

CCc1cccc(C)c1N(C(=O)CCl)C(C)COC (stereo not drawn) [Herbicide No. 12, 2-Chloro-N-(2-methoxy-1-methylethyl)-6'-ethyl-o-acetotoluidide, reference compound]
% Injury BYG [14]: 100%
% Injury VL [15]: 20%
% Injury Corn (corn [16]): 0%

CC1COc2ccccc2N1C(=O)C(Cl)Cl (stereo not drawn) [Antidote No. 17, 4-(Dichloroacetyl)-3,4-dihydro-3-methyl-2H-1,4-benzoxazine]
safening of corn, assessment in words (corn [1]): failed to safen

CCOC(=O)c1cnn(C)c1S(=O)(=O)NC(=O)Nc1nc(OC)cc(OC)n1 [Herbicide No. 3, N-[(4,6-dimethoxypyrimidin-2-yl)aminocarbonyl]-4-ethoxycarbonyl-1-methylpyrazole-5-sulfonamide]
inhibition at 0.07 g/ha (corn [13]; Zea mays, pre-emergence, Preemergence, herbicide alone 0.07 G/ha): 19.1%
inhibition at 0.25 g/ha (corn [13]; Zea mays, pre-emergence, Preemergence, herbicide alone 0.25 G/ha, read-out: % Inhibition Corn): 80.9%
inhibition at 0.74 g/ha (corn [13]; Zea mays, pre-emergence, Preemergence, herbicide alone 0.74 G/ha): 80.9%
inhibition at 0.25 g/ha (corn [13]; Zea mays, pre-emergence, preemergence, Herbicide No. 3 0.25 G/ha, read-out: corn injury, percent inhibition of growth): 80.9%
